US20020081574A1, “Methods for identifying inhibitors of helicase C virus” (priority 1996, published 2002)

Experiments:
[1] = target: T1, HCV NS3 RNA helicase (Hepatitis C virus genotype 1a, UniProt P27958); format: biochemical; settings: for helicase activity levels reduced when substituting for Mn^+2: divalent cation tested at 3 mM
T1 construct: derived from the full length, native polypeptide (residues 1027-1657); made in house; host or cells: Spodoptera frugiperda Sf9 cells, recombinant baculovirus bacNS3-5B (polyprotein residues 1027-3011 expressed and processed)
T1 sequence (P27958 1027-1657): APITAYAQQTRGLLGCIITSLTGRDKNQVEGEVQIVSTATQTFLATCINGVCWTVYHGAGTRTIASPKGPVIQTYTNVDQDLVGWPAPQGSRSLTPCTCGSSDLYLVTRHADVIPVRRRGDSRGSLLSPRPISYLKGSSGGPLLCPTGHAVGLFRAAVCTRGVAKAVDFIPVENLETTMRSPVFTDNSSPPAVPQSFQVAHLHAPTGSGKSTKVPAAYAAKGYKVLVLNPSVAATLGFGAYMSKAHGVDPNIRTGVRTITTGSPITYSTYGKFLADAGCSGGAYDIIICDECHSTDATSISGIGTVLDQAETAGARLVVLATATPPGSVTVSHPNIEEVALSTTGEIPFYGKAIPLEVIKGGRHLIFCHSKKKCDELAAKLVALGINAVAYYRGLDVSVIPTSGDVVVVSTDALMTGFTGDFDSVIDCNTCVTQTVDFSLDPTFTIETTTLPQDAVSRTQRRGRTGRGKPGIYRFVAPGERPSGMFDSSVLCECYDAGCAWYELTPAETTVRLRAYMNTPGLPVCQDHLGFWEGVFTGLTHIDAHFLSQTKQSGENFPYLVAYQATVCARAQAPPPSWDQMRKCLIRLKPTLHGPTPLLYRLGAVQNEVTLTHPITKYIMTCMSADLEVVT

[2] = test system: HCV; settings: cited from earlier work

[Zn+2] [Zn^+2]
helicase activity levels reduced when substituting for Mn^+2 [1]: 2 fold

[Na+] [Na^+]
effect of monovalent cations on HCV NS3 helicase activity [1]: inhibit

interferon alpha [IFN-α]
improved serum liver enzyme response ([2]; IFN treatment): 20-40 % of patients | sustained improvement of aminotransferase levels ([2]; responders): 10-20 % of patients

[K+] [K^+]
effect of monovalent cations on HCV NS3 helicase activity [1]: inhibit

[Cu+2] [Cu^+2]
helicase activity levels reduced when substituting for Mn^+2 [1]: 7 fold

[Ca+2] [Ca^+2]
helicase activity levels reduced when substituting for Mn^+2 [1]: 3 fold
